Assay [1] concerns microbial consortium from wastewater sludge samples. Particulars: 1-butanol 1.6%, chemostat, 37° C.
Assay [2] deals with most microorganisms described in the art. Particulars: liquid medium at 37° C.; cited from earlier work.
For assay [3], the system named is butanol tolerant Lactobacillus strains. It counts as cell-based. Particulars: S20 agar or TSA agar, 37° C., 24 to 72 h. As to the method: The square-well microtiter plate was sealed with an adhesive cover (Beckman Coulter Inc.; Catalog No. 538619) and incubated at 37° C. with shaking for up to 72 h. The square-well microtiter plate was used to make a master plate by dispensing 200 μL of culture from each square well into a corresponding well in a “U-bottom” microtiter plate (VWR Scientific Products, West Chester, Pa.; Catalog No. 62409-052).

Data on one substance can be found in patent publication US7541173B2, “Solvent tolerant microorganisms and methods of isolation” (E.I. du Pont de Nemours and Company, priority 2006, dated 2009).

For 1-butanol, in assay [1] (after adaptation), the “cell density after continued incubation” value is recorded as 2.3 OD600. Also, in assay [1] (initial decrease), the “cell density after increasing 1-butanol in feed” value is on record as “less than 1.5 OD600”. Besides, the “concentration at which growth is totally inhibited” value in assay [2] is “less than 2.0 % w/v”. The “1-butanol concentration in agar medium on which isolates grew” value in assay [3] is reported as 3%.
